Results as given in paper PMC9841519, “Corrole Nanoparticles for Chemotherapy of Castration-Resistant Prostate Cancer and as Sonodynamic Agents for Pancreatic Cancer Treatment” (Journal of Medicinal Chemistry, 2022).

Assays:
SK-MEL-28 = assay: MTT assay, antitumor activity (Figure 1 table); conditions: for IC50: read-out: IC50 (μM) SK-MEL-28
Experimental: (§1) Cell death was evaluated using a colorimetric [3-(4,5-dimethyl-thiazol-2-yl)-2,5-diphenyl-tetrazolium bromide] (MTT) assay. […] Cells intended for US exposure were plated separately. […] After this incubation period, purple formazan salt crystals were formed by a NADP/NADPH-dependent process, in metabolically active cells. […] The absorption of MTT was determined in a Tecan Sunrise Elisa-Reader (Switzerland) at 570/650 nm after automatic subtraction of background readings.

DU-145 = assay: MTT assay, antitumor activity (Figure 1 table); conditions: for IC50: read-out: IC50 (μM) DU-145
Experimental: as §1

MDA-MB-231 = assay: MTT assay, antitumor activity (Figure 1 table); conditions: for IC50: read-out: IC50 (μM) MDA-MB-231
Experimental: as §1

OVCAR-3 = assay: MTT assay, antitumor activity (Figure 1 table)
Experimental: as §1

Salmonella strain TA98 = assay: Ames mutagenicity test
Description: (§2) Briefly, the Ames test uses 5 bacterial strains (Salmonella and E. coli) that are exposed to a given compound with and without an enzymatic bioactivation system derived from rodent liver (S9). Each bacterial strain has a different loss of function mutation in a gene essential for the biosynthesis of a required amino acid, histidine in Salmonella or tryptophan in E. coli, such that they cannot grow and form colonies on agar plates lacking these amino acids.

[1] = tested on: several human cancer cell lines; assay: Screening of corrole derivatives and their NPs on several cancer cell lines; type: cell-based; conditions: not consistent upon repeated experiments for 2-Au
Experimental: Multiple corrole derivatives and their NPs were tested on several cancer cell lines. These include several metal chelated derivatives of 5,10,15-tris(pentafluorophenyl)corrole (2-H3) (Figure 1A); β-substituted (iodinated and brominated) corroles and several of its metal chelates (only 4-Au data are shown); different meso substituted corroles and their metal chelates (e.g., 5,15-di(pentafluorophenyl)-10-(imidazolyl)-corrole gallium(III), not presented); and the new synthetically available compound 5,10,15-tris(trifluoromethyl)corrole with different chelated metals (only the gallium(III) chelate 3-Ga is presented in Figure 1A). […] The best candidates from the high molecular weight list of corrole derivatives were the gold complexes 2-Au and 4-Au. […] Though there was an apparent effect on the cell cycle progression of the treated cells, there was no apparent cell death outcome accompanying the cell cycle arrest. Furthermore, the cell population within the culture wells appeared to be dividing freely and completely covering the wells’ surface (data not shown).

Salmonella strain TA100 = assay: Ames mutagenicity test; conditions: S9: Yes
Description: as §2

Row | SMILES | IC50 (SK-MEL-28) [µM] | IC50 (DU-145) [µM] | IC50 (MDA-MB-231) [µM] | also measured
1 | Fc1c(F)c(F)c(C2=C3C=CC(=N3)C(c3c(F)c(F)c(F)c(F)c3F)=c3ccc4[n]3[Au]3[n]5c2ccc5-c2ccc([n]23)C=4c2c(F)c(F)c(F)c(F)c2F)c(F)c1F [2-Au] | 0.006 to 5 | 0.005 to 4 | 0.01 to 1 | –
2 | Fc1c(F)c(F)c(-c2c3nc(c(-c4c(F)c(F)c(F)c(F)c4F)c4ccc([nH]4)c4ccc([nH]4)c(-c4c(F)c(F)c(F)c(F)c4F)c4ccc2[nH]4)C=C3)c(F)c1F [2-H3, 5,10,15-tris(pentafluorophenyl)corrole] | – | – | – | IC50 (μM) OVCAR-3 (OVCAR-3): ambiguous; IC50 (μM) SK-MEL-28 (SK-MEL-28): ambiguous; IC50 (μM) DU-145 (DU-145): ambiguous; IC50 (μM) MDA-MB-231 (MDA-MB-231): ambiguous
3 | Fc1c(F)c(F)c(C2=C3C=CC(=N3)C(c3c(F)c(F)c(F)c(F)c3F)=c3ccc4[n]3[Mn]3[n]5c2ccc5-c2ccc([n]23)C=4c2c(F)c(F)c(F)c(F)c2F)c(F)c1F [2-Mn] | 5 | 10 | 4 | –
4 | O=[N+]([O-])c1ccc2c(c1)Cc1ccccc1-2 [2-nitrofluorine] | – | – | – | AMES Result (Positive/Negative) (Salmonella strain TA98; S9: No): Positive
5 | Fc1c(F)c(F)c(C2=C3C=CC(=N3)C(c3c(F)c(F)c(F)c(F)c3F)=c3ccc4[n]3[Au]3[n]5c2c(I)c(I)c5-c2c(I)c(I)c([n]23)C=4c2c(F)c(F)c(F)c(F)c2F)c(F)c1F [4-Au] | 1 to 10 | 0.07 to 1 | 1 to 10 | IC50 (OVCAR-3; read-out: IC50 (μM) OVCAR-3): 1 µM; IC50 values in several human cancer cell lines (in words) [1]: submicromolar to single micromolar
6 | Nc1cccc2cc3ccccc3cc12 [aminoanthracene] | – | – | – | AMES Result (Positive/Negative) (Salmonella strain TA98; S9: Yes): Positive; AMES Result (Positive/Negative) (Salmonella strain TA100): Positive
